Experimental data: PubChem BioAssay AID2060499 (Molecular Pharmacology Branch, DTP, NCI, 2025)
pIC50: −log10 of the molar value.

System: 777334-354-R2-J4-PDC tumor spheroids with HUVEC/MSC, viability
Experiment: Anticancer human tumor 777334-354-R2-J4-PDC patient-derived pancreatic adenocarcinoma cell line growth inhibition [GQUAD]
Details: for pIC50: curve of first compound; for viability, T/C: stronger effect = lower value
Summary of the method: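 Tumor cells were grown as complex spheroids with HUVEC endothelial cells and mesenchymal stem cells as stroma. G-quadruplex stabilizers were combined with targeted agents over half-log dilutions from near the clinical Cmax, or from 10 microM.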

[1] = second compound 0.0316 µM, first compound 0.0316 µM
[2] = second compound 0.0316 µM, first compound 0.1 µM
[3] = second compound 0.0316 µM, first compound 0.316 µM
[4] = second compound 0.0316 µM, first compound 1 µM
[5] = second compound 0.0316 µM, first compound 3.16 µM
[6] = second compound 0.0316 µM, first compound 10 µM
[7] = second compound 0.1 µM, first compound 0.0316 µM
[8] = second compound 0.1 µM, first compound 0.1 µM
[9] = second compound 0.1 µM, first compound 0.316 µM
[10] = second compound 0.1 µM, first compound 1 µM
[11] = second compound 0.1 µM, first compound 3.16 µM
[12] = second compound 0.1 µM, first compound 10 µM
[13] = second compound 0.316 µM, first compound 0.0316 µM
[14] = second compound 0.316 µM, first compound 0.1 µM
[15] = second compound 0.316 µM, first compound 0.316 µM
[16] = second compound 0.316 µM, first compound 1 µM
[17] = second compound 0.316 µM, first compound 3.16 µM
[18] = second compound 0.316 µM, first compound 10 µM
[19] = second compound 1 µM, first compound 0.0316 µM
[20] = second compound 1 µM, first compound 0.1 µM
[21] = second compound 1 µM, first compound 0.316 µM
[22] = second compound 1 µM, first compound 1 µM
[23] = second compound 1 µM, first compound 3.16 µM
[24] = second compound 1 µM, first compound 10 µM
[25] = second compound 3.16 µM, first compound 0.0316 µM
[26] = second compound 3.16 µM, first compound 0.1 µM
[27] = second compound 3.16 µM, first compound 0.316 µM
[28] = second compound 3.16 µM, first compound 1 µM
[29] = second compound 3.16 µM, first compound 3.16 µM
[30] = second compound 3.16 µM, first compound 10 µM
[31] = second compound 10 µM, first compound 0.0316 µM
[32] = second compound 10 µM, first compound 0.1 µM
[33] = second compound 10 µM, first compound 0.316 µM
[34] = second compound 10 µM, first compound 1 µM
[35] = second compound 10 µM, first compound 3.16 µM
[36] = second compound 10 µM, first compound 10 µM
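Further: spheroids exposed to compounds for 7 days before readout.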

COc1ncnc(C2CC2)c1-c1ncc2cnn(Cc3ccc(-c4nc(C(F)(F)F)cn4C(C)C)cc3)c2n1 + Cc1[nH]c2ccc(F)cc2c1-c1nc2c3cccnc3c3ncccc3c2[nH]1
pIC50 (second compound 0.0316 µM): < 5.00 | pIC50 (second compound 0.1 µM): < 5.00 | pIC50 (second compound 0.316 µM): < 5.00 | pIC50 (second compound 1 µM): < 5.00 | pIC50 (second compound 3.16 µM): 6.90 | pIC50 (second compound 10 µM): > 7.50 | viability, T/C [1]: 104% | viability, T/C [2]: 96.9% | viability, T/C [3]: 103% | viability, T/C [4]: 91.4% | viability, T/C [5]: 83% | viability, T/C [6]: 112% | viability, T/C [7]: 102% | viability, T/C [8]: 89.4% | viability, T/C [9]: 100% | viability, T/C [10]: 92.1% | viability, T/C [11]: 89% | viability, T/C [12]: 105% | viability, T/C [13]: 93% | viability, T/C [14]: 85% | viability, T/C [15]: 96.7% | viability, T/C [16]: 85.4% | viability, T/C [17]: 93.1% | viability, T/C [18]: 110% | viability, T/C [19]: 81.9% | viability, T/C [20]: 88.3% | viability, T/C [21]: 90.5% | viability, T/C [22]: 79.6% | viability, T/C [23]: 91% | viability, T/C [24]: 79.3% | viability, T/C [25]: 56.1% | viability, T/C [26]: 58.8% | viability, T/C [27]: 37.6% | viability, T/C [28]: 43.5% | viability, T/C [29]: 49.3% | viability, T/C [30]: 49.7% | viability, T/C [31]: 39.7% | viability, T/C [32]: 35.3% | viability, T/C [33]: 38.2% | viability, T/C [34]: 18.8% | viability, T/C [35]: 33.3% | viability, T/C [36]: 35.7%

CC1COCCN1c1cc(C2(S(C)(=N)=O)CC2)nc(-c2ccnc3[nH]ccc23)n1 (stereo unspecified) + Cc1cnc(CNC(=O)c2c(=O)c3ccc(N4CCCN(C)CC4)nc3n3c2sc2ccccc23)cn1
pIC50 (second compound 0.0316 µM): < 5.00 | pIC50 (second compound 0.1 µM): < 5.00 | pIC50 (second compound 0.316 µM): < 5.00 | pIC50 (second compound 1 µM): < 5.00 | pIC50 (second compound 3.16 µM): < 5.00 | pIC50 (second compound 10 µM): < 5.00 | viability, T/C [1]: 103% | viability, T/C [2]: 85.7% | viability, T/C [3]: 113% | viability, T/C [4]: 93.9% | viability, T/C [5]: 99% | viability, T/C [6]: 53.8% | viability, T/C [7]: 112% | viability, T/C [8]: 84.4% | viability, T/C [9]: 94.8% | viability, T/C [10]: 80.5% | viability, T/C [11]: 88.9% | viability, T/C [12]: 53% | viability, T/C [13]: 84.1% | viability, T/C [14]: 87.4% | viability, T/C [15]: 81.2% | viability, T/C [16]: 82% | viability, T/C [17]: 86.9% | viability, T/C [18]: 52.3% | viability, T/C [19]: 76.2% | viability, T/C [20]: 93.4% | viability, T/C [21]: 78.5% | viability, T/C [22]: 81.5% | viability, T/C [23]: 68.6% | viability, T/C [24]: 50.7% | viability, T/C [25]: 64.5% | viability, T/C [26]: 57.1% | viability, T/C [27]: 65% | viability, T/C [28]: 58.7% | viability, T/C [29]: 69.2% | viability, T/C [30]: 54.7% | viability, T/C [31]: 56.5% | viability, T/C [32]: 59.5% | viability, T/C [33]: 53.5% | viability, T/C [34]: 55.9% | viability, T/C [35]: 57.5% | viability, T/C [36]: 44.7%

COc1ccc([C@@H](O)c2cc(-c3ncnc4cc(N5CCOCC5)ccc34)c(F)cc2Cl)nn1 + Cc1cnc(CNC(=O)c2c(=O)c3ccc(N4CCCN(C)CC4)nc3n3c2sc2ccccc23)cn1
pIC50 (second compound 0.0316 µM): 5.52 | pIC50 (second compound 0.1 µM): 5.79 | pIC50 (second compound 0.316 µM): 5.68 | pIC50 (second compound 1 µM): 5.83 | pIC50 (second compound 3.16 µM): 6.02 | pIC50 (second compound 10 µM): 6.18 | viability, T/C [1]: 101% | viability, T/C [2]: 94.4% | viability, T/C [3]: 101% | viability, T/C [4]: 72.1% | viability, T/C [5]: 51% | viability, T/C [6]: 24.6% | viability, T/C [7]: 102% | viability, T/C [8]: 84.4% | viability, T/C [9]: 69.9% | viability, T/C [10]: 57.9% | viability, T/C [11]: 42.8% | viability, T/C [12]: 23.2% | viability, T/C [13]: 93.9% | viability, T/C [14]: 89.3% | viability, T/C [15]: 75.8% | viability, T/C [16]: 64.8% | viability, T/C [17]: 42% | viability, T/C [18]: 20.1% | viability, T/C [19]: 76.2% | viability, T/C [20]: 84.1% | viability, T/C [21]: 69.5% | viability, T/C [22]: 57.7% | viability, T/C [23]: 36.3% | viability, T/C [24]: 19.2% | viability, T/C [25]: 61.1% | viability, T/C [26]: 64.9% | viability, T/C [27]: 63.1% | viability, T/C [28]: 45.6% | viability, T/C [29]: 34.9% | viability, T/C [30]: 17.1% | viability, T/C [31]: 58.4% | viability, T/C [32]: 61% | viability, T/C [33]: 52.5% | viability, T/C [34]: 48.5% | viability, T/C [35]: 28.6% | viability, T/C [36]: 15.6%
